# Experimental data: the METLIN SMRT retention time set (Domingo-Almenara et al. 2019)
# Test: gradient 5% acetonitrile 3 min, to 50% in 2 min, to 85% in 15 min, held 3 min, 100 µL/min
# Settings: column: Zorbax Extend-C18 2.1 x 50 mm; eluents: water / acetonitrile, 0.1% formic acid
# Outline: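 Retention times come from adduct peaks that were picked computationally and then checked by hand. The standards, pure and pooled in mixtures of ~100 molecules, were run on a Zorbax Extend-C18 column (2.1 × 50 mm, 1.8 μm) at 100 μL/min with water and acetonitrile, each with 0.1% formic acid. Detection was by quadrupole time-of-flight mass spectrometry in positive and negative ionization mode, with a dead volume of 40 μL and a dwell volume of 900 μL.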
row,SMILES,RP-LC retention time [s]
1,COc1cc(-c2nc3cccc(C)n3c2Nc2ccc3c(c2)OCCO3)ccc1O,634
2,Cc1ccc(C)c(N2C(=O)CN(S(C)(=O)=O)CC2(C)C(=O)NCc2ccc(F)cc2)c1 (centres undefined),840
3,CCN1CCN(c2ncc3c(n2)CCN(Cc2ccc(Br)s2)C3)CC1,568
4,COc1ccc(C(=O)N(CC(=O)N(Cc2ccco2)CC2CCCO2)C(C)(C)C)cc1 (centres undefined),862
5,Cc1ccc2c(c1)N(S(C)(=O)=O)CCC(C(=O)Nc1ccc(F)c(F)c1)O2 (centres undefined),960
6,COc1cnc(NS(=O)(=O)c2ccc(N)cc2)nc1,675
7,O=C(CC1CCCC1)Nc1ccc(N2CCN(C3CCCC3)C2=O)nc1,801
8,COc1ccc(CNC(=O)c2cc3sc(Cl)cc3n2C)cc1,1030
9,CCC(=O)N1CCc2ccccc2C1C(=O)NCc1ccc(SC)cc1 (centres undefined),853
10,Cc1cnc(CC2CCN(S(=O)(=O)c3cccc(F)c3)C2)n1C(C)C (centres undefined),671
11,O=C(Nc1ccc2c(c1)OCCO2)N1CCCC(c2nnnn2-c2ccccc2)C1 (centres undefined),792
12,CC(C)CN1C(=O)c2ccccc2C(C(=O)NCc2cccnc2)C12CCCCC2 (centres undefined),659
13,O=C(NCc1ccc(N2CCN(c3ccccn3)CC2)cc1)c1ccoc1,624
14,CCCC(=O)N1CCN(c2ccc(=O)n(-c3ccc(C(C)C)cc3)n2)CC1,851
15,CCCCn1c(CN2CCCC2)nc2cc(NC(=O)CC)ccc21,605
16,O=C(NC1CC1)c1ccccc1OCC1CCN(C(=O)C2CCCO2)CC1 (centres undefined),685
17,Cn1cnc(S(=O)(=O)N2CCC(C(=O)Nc3cccc(Br)c3)CC2)c1,741
18,CC1=C(c2ccccc2)S(=O)(=O)N=C1N1CCCN(C(=O)C(C)(C)C)CC1,803
19,O=C(NCC1OCCc2ccccc21)C(=O)N1CCCCC1 (centres undefined),716
20,CCCNC(=O)CCc1nc2ccccc2n(CC(=O)Nc2cccc(SC)c2)c1=O,819
21,CCn1c(=O)sc2cc(S(=O)(=O)N3CCC(C(=O)Nc4ccc(C)cn4)CC3)ccc21,735
22,COc1cc2c(cc1OC)CN(C(=O)C1CC(=O)N(c3n[nH]c4cccc(F)c34)C1)CC2 (centres undefined),689
23,COc1ccc(C(=O)NC2CCN(c3cc(-c4cccs4)[nH]n3)C2)c(C)c1 (centres undefined),712

row,SMILES,RP-LC retention time [s]
1,Cc1cc(Cl)ccc1NC(=O)CC1COc2ccccc2NC1=O (centres undefined),770
2,CCc1nc2ccccc2c(=O)n1Cc1noc(-c2ccc(OC)cc2OC)n1,918
3,COc1cc(OC)c(NC(=O)N2CC(Cc3nc(-c4cnccn4)no3)C2)cc1Cl,733
4,Cc1cccc(NC(=O)N2CCCC(Cn3c(C4CC4)nc4cccnc43)C2)c1C (centres undefined),683
5,Cc1cc(C)n(-c2cc(N3CCCC(C(=O)Nc4nccs4)C3)ncn2)n1 (centres undefined),749
6,COc1ccc2c(c1)C1(CCN(C(=O)c3cccc(Br)c3)C1)C(=O)N2 (centres undefined),754
7,O=C(Nc1nnc(-c2cccs2)o1)c1ccc([N+](=O)[O-])o1,677
8,Cc1ccccc1S(=O)(=O)Nc1ccc(C2(C(=O)NCC3CCCO3)CC2)cc1 (centres undefined),797
9,COCc1cc2nn(CC(=O)Nc3ccccc3)c(=O)n2c(-c2ccccc2)n1,800
10,Cc1cc(-c2nnc(-c3ccccc3)o2)c(C)n1CC(=O)Nc1ccc2c(c1)OCO2,596
11,COc1ccccc1-n1nnc(C(=O)NCc2nc3ccccc3n2C)c1-c1ccccn1,574
12,CC(C)(C)c1nnc(NC(=O)C2CC(=O)N(CCc3c[nH]c4ccc(Cl)cc34)C2)s1 (centres undefined),831
13,Cc1nc2cc(-c3noc(Cc4ccccc4C)n3)ccc2o1,1060
14,Cc1ccc2nc(C)cc(C(=O)NC3CCCC3)c2c1,610
15,Clc1ccccc1-c1nnc(SCc2cccnc2)o1,621
16,O=C(NC1CCCC1)c1csc(-c2ccc(N3CCCCC3)nc2)n1,937
17,COc1ccc(NC(=O)c2c(O)c3cccnc3n(-c3ccccc3)c2=O)cc1,1200
18,CN1c2cc(C(=O)NCc3ccncc3)ccc2C(=O)N2CCCCC21 (centres undefined),586
19,Cc1ccc(-c2nc(N)n(C(=O)c3ccc(C(C)(C)C)cc3)n2)cc1C,1350
20,CSc1nnc(-c2nn(C)c3c2CN(C(=O)c2cccc(F)c2)CC3)n1C,693
21,c1ccc(-c2nc(-c3ccnc(N4CCCC4)c3)no2)nc1,594
22,O=S(=O)(c1ccccc1)N1CC(n2cc(COc3ccc(F)cc3)nn2)C1,888
23,CC1CCCCN1CCCNC(=O)CCCN1C(=O)CCn2nc(-c3cccn3C)cc21 (centres undefined),545

row,SMILES,RP-LC retention time [s]
1,O=C(Nc1nc(-c2ccccc2)cs1)c1ccc(COc2ccc(Cl)cc2Cl)o1,1280
2,Cc1nc(CC(=O)Nc2nc(-c3ccc(Br)cc3)c(C)s2)cs1,994
3,O=C(NCCCn1nc(-c2ccc(F)cc2)ccc1=O)Nc1cc(Cl)ccc1Cl,566
4,Cc1csc(NC(=O)Cn2nc3c(cc2=O)CCCCC3)n1,735
5,COc1ccc(NC(=O)N2C[C@H]3C[C@H](C2)[C@H]2CCCC(=O)N2C3)cc1,620
6,COc1ccc(C(O)Cn2ccn3nc(-c4cc(C)ccc4C)cc3c2=O)cc1OC (centres undefined),879
7,O=C(Cn1c(=O)cc(-c2nc(C3CC3)no2)c2ccccc21)NCCc1ccc(Cl)cc1,1000
8,Cc1ccc2oc(SCc3noc(CCC(=O)Nc4nc(-c5ccccc5)cs4)n3)nc2c1,1130
9,Cc1ccccc1-c1noc(Cc2nnc(-c3cccc(Br)c3)o2)n1,853
10,CCOC(=O)Nc1ccc2nc(-c3cscn3)[nH]c2c1,651
11,O=C(Cn1cnc2c(sc3nc(-c4ccccc4)ccc32)c1=O)Nc1ccc(F)cc1Cl,1050
12,CCn1cc(CCNC(=O)Nc2cc(C)ccc2C)c2cccnc21,723
13,COc1cccc(OC)c1C(=O)N1CCCC1c1c(C)noc1C (centres undefined),665
14,CC1(C(=O)NCc2ccccc2)CCCN(C(=O)Nc2ccc(Br)cc2F)C1 (centres undefined),1030
15,CCC(=O)Nc1ccc2c(c1)CN(C(=O)c1ccc(Cl)cc1)C(C(=O)N1CCCC1)C2 (centres undefined),738
16,Cc1cc(N2CCN(C(=O)Nc3cccc(C)c3C)CC2)nc(N2CCOCC2)n1,633
17,O=c1n(Cc2ccccc2)nc2c(S(=O)(=O)N3CCCCCC3)cccn12,948
18,O=C(CCc1nnn2c1CN(C(=O)c1ccccc1)CC2)NC1CC1,604
19,COc1ccc(N2C=C(C(=O)N3CCCC3)S(=O)(=O)c3ccc(Cl)cc32)cc1,856
20,CCOC(=O)c1ccc(NC(=O)c2ccc(-n3nncc3C)cc2)cc1,757
21,O=C(Cn1nc(N2CCCCCC2)c2ccccc2c1=O)Nc1ccccc1,1050
22,COc1ccc(OC)c(S(=O)(=O)Nc2ccc(Oc3nc4ccccc4n4cnnc34)cc2)c1,766
23,O=C(Cc1csc(NC(=O)c2ccsc2)n1)NCCOc1ccc(F)cc1,747

row,SMILES,RP-LC retention time [s]
1,CN1Cc2ccccc2-n2ccnc2C12CCN(C(=O)c1ccc(Br)o1)CC2,615
2,Cc1ccc2ncn(C3CCN(S(=O)(=O)c4cccc(Cl)c4)CC3)c(=O)c2c1,963
3,COc1cc(CC(=O)N2CCN(c3cc(C(C)C)n4cnnc4n3)CC2)cc(OC)c1,635
4,O=C(CCc1c(-c2ccc(Cl)cc2)nc2ccccn12)NC1CCCCCC1,712
5,O=S(=O)(Nc1ccc(-c2noc(COc3ccc(Cl)cc3)n2)cc1)c1cccs1,1120
6,CCOCCCNC(=O)C1CCN(c2cnn(Cc3ccccc3)c(=O)c2)CC1,679
7,COc1ccccc1NC(=O)CSCC(=O)N1CCC(C(N)=O)CC1,619
8,Cc1ccc2c(Nc3ccc(S(N)(=O)=O)cc3)c(C(=O)OC(C)C)cnc2n1,840
9,CCCn1cc(CCNS(=O)(=O)c2ccccc2C(F)(F)F)c2cccnc21,904
10,O=C(Nc1ccc2c(c1)OCCO2)N1CCCC(Cn2cnc3cccnc32)C1 (centres undefined),637
11,O=C(Nc1nc(C(=O)N2CCc3ccccc32)co1)c1cccs1,730
12,c1ccc(-c2nnc3oc(-c4cccs4)nn23)cc1,911
13,Cc1cc(C)c2nc(-c3ccccc3Br)cc(C(=O)O)c2c1,1130
14,Cc1c(C(=O)N2CCC(C(=O)N3CC=C(c4ccccc4)CC3)CC2)sc2nc[nH]c(=O)c12,728
15,COc1cccc(C2Cn3nnc(-c4nc(-c5ccc(SC)cc5)no4)c3CO2)c1 (centres undefined),1200
16,CC(C)Cn1c(=O)c(C(=O)NCCCc2ccccc2)nc2cccnc21,888
17,CC(C)CC(=O)N1CCc2nc(-c3ccccc3)ncc2C1,868
18,Cc1ccc(S(=O)(=O)N2CCC(n3cnnc3-c3ccccc3)CC2)c(C)c1,844
19,COc1ccc(Cl)cc1NC(=O)Nc1ccc2c(c1)CN(C(=O)C1CC1)CC2,871
20,CCOC(=O)c1ccc(NS(=O)(=O)c2cc3n(c2)CCN(CC)C3=O)cc1,744
